These results are taken from patent US5639726A, “Peptide mediated enhancement of thrombolysis methods and compositions” (The Regents of the University of Michigan, priority 1994, dated 1997).

Ends that are not written are not given here.

For test [1], the target named is T1, PAI-1 (Homo sapiens, UniProt P05121).
T1 construct: made in house; host or cells: E. coli (vector pET3a)
In words: Kinetics of peptide annealing: residual PAI inhibitory activity assayed with β-trypsin and S-2222. Type of test: biochemical. The settings on record: for IC50: FIG. 2, read-out: IC50 for the inactivation of PAI-1; for kobs / k: 25° C.; for half-life of PAI-1 decreased to: summary of Example 2, peptide concentration not given. On the procedure: PAI-1 (6.4 μM) was incubated with increasing concentrations of each peptide at 23° C. and the (T1/2) of PAI-1 inactivation was determined by measuring the PAI-1 activity remaining over time.
Peptides were dissolved in 1 mM HCl+1% TWEEN-80 (the three PAI peptides) (SEQ ID NOS: 1-3), or in 0.1M HEPES (SEQ ID NOS: 4-5), 0.1M NaCl, 0.1% PEG-8000, pH […] (the two consensus peptides). Peptides were annealed to active PAI by incubation of active PAI in 0.1M HEPES, 0.1M NaCl, 0.1% PEG-8000, pH 7.4 with a peptide in its solvent. Ten percent of the final incubation mixture consisted of the peptide solvent. Incubation was carried out at 25° C. until no PAI inhibitory activity remained as determined by kinetics rate assays with trypsin, described below. The final concentration of PAI in the incubation mixture was either 0.9 μM (for kinetics assays) or 6.3 μM (for gels and purification). The peptide concentrations varied greatly due to the individual solubilities and rates of insertion of each peptide. These concentrations are given in the legends of the appropriate figures.
During annealing of 0.9 μM PAI with a peptide, the residual inhibitory activity of PAI was measured after varying incubation times by assaying an aliquot of the sample with β-trypsin. Trypsin (1 nM final concentration) was added to the chromogenic substrate S-2222 (950 μM) with 27 nM PAI sample. The absorbance at 405 nm was measured continuously for at least 12.5 min in a Shimadzu UV-265 UV-visible spectrophotometer. The pseudo-first order rate constant of trypsin is an indirect measure of the amount of PAI that has lost inhibitory activity due either to annealing or to becoming latent. The rate constant of controls containing the peptide solvent but no peptide was subtracted from that of the experimental assays in order to correct for the effect of the simultaneous change of PAI from the active to the latent state.

In test [2] the target is T1, PAI-1. Described as above. Format: biochemical. The settings on record: for lowest PAI-1 functional half-life obtained with increasing concentrations of peptide: 9.0 hr in the absence of peptide.
The target in test [3] is T1, PAI-1. In words: Native gel electrophoresis of PAI incubated with peptide. Type of test: binding. How it is done: SDS-polyacrylamide gel electrophoresis (SDS-PAGE) under nonreducing conditions was carried out according to the method of Laemmli (Laemmli, 1970) on 10% gels. Native gel electrophoresis with 5% gels was carried out by omitting SDS and boiling from Laemmli's method. All gels were stained with Coomassie brilliant blue. Gels of PAI-peptide samples were scanned with an LKB Ultroscan XL Laser Densitometer to determine the relative amounts of peptide-annealed and latent PAI.
Four of the five peptides have a net negative charge due to glutamic acid residues and the free carboxy terminus (FIG. 1). The wtPAI 8-mer has a net -1 charge (the carboxy terminus). The V→E PAI 8-mer (SEQ ID NO:3) and consensus 8-mer (SEQ ID NO:4) each have a -2 charge (the glutamic acid residue and the carboxyl group). […] The PAI 14-mer (SEQ ID NO:1) is uncharged since it contains no glutamic acid and the arginine and carboxyl groups neutralize each other. Because of the negative charges of 4 of the peptides, native gels of PAI annealed to these peptides should show a band which migrates more quickly than the band representative of free active PAI. Similarly, if one of these peptides is incubated with PAI but fails to form a strong interaction with PAI, native gels should show a band which migrates identically to the free PAI.

Test [4] deals with normal human plasma. In words: Activated partial thromboplastin time (APTT) in normal human plasma, with porcine coronary thrombus extract. Type of test: biochemical. On the procedure:
Platelets contain several factors that inhibit heparin, including platelet factor 4, heparatinase, and histidine-rich glycoprotein. In an attempt to study potential heparin resistance within the microenvironment of the coronary thrombus the coronary thrombi previously analyzed for PAI-1 content were also assessed for their capacity to inhibit heparin in vitro (Eitzman et al., 1994). Pharmaceutical grade, unfractionated heparin was added to normal human plasma in sufficient quantity (0.12 U/mL) to prolong the activated partial thromboplastin time (APTT) to approximately 2× control. APTT determinations were then repeated after the addition of 2.5 μL of thrombus extract per 100 μL of heparinized plasma.
Similar experiments were also performed using recombinant hirudin as anticoagulant. In these experiments, hirudin (0.17 μg/mL) was used to prolong the APTT to approximately twice control values. However, unlike the case with heparin, thrombus extracts had no effect on capacity of hirudin to prolong the APTT (FIG. 9a).

T1 sequence (P05121 24-402): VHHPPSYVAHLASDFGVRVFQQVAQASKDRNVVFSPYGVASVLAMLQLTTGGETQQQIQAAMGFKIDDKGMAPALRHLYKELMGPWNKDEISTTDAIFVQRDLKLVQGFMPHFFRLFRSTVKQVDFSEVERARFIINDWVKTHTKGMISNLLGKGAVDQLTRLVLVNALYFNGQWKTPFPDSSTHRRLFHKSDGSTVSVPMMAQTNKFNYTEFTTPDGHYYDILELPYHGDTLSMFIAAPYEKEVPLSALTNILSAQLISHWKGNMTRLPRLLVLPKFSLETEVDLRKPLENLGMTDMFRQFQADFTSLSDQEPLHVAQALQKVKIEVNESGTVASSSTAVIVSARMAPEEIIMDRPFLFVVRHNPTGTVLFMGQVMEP

With “Ac-TEAAAATG [SEQ ID NO: 4, Thr-Glu-Ala-Ala-Ala-Ala-Thr-Gly]”, in test [1], the IC50 came out at 1600 µM. Also, the kobs result in test [1] (peptide 2.5 mM) was “.21 h⁻¹”; in test [1] (peptide 5.04 mM) it was “.38 h⁻¹”; in test [2] (peptide 1.5 mM, 25° C.), “.13 h⁻¹”; in test [2] (peptide 3.5 mM, 25° C.), “.28 h⁻¹”; in test [2] (peptide 7 mM, 25° C.), “.44 h⁻¹”; in test [2] (peptide 9 mM, 25° C.), “.54 h⁻¹”. Also, the kobs result in test [2] (peptide 11 mM, 25° C.) is “.58 h⁻¹”. In test [1], the “half-life of PAI-1 decreased to” value was found to be 1.3 h. The “lowest PAI-1 functional half-life obtained with increasing concentrations of peptide” value in test [2] (25° C.) is 1.2 h. The k entry was “.024 M⁻¹ s⁻¹” in test [2] (peptide 1.5 mM, 25° C.); “.024 M⁻¹ s⁻¹” in test [2] (peptide 2.5 mM, 25° C.); “.022 M⁻¹ s⁻¹” in test [2] (peptide 3.5 mM, 25° C.); “.021 M⁻¹ s⁻¹” in test [2] (peptide 5.04 mM, 25° C.); “.017 M⁻¹ s⁻¹” in test [2] (peptide 7 mM, 25° C.); “.017 M⁻¹ s⁻¹” in test [2] (peptide 9 mM, 25° C.). Further, the k result in test [2] (peptide 11 mM, 25° C.) was “.015 M⁻¹ s⁻¹”. In addition, the “t1/2 of PAI-1 inactivation” value in test [2] (peptide 1.5 mM, 25° C.) is 5.4 h; in test [2] (peptide 2.5 mM, 25° C.) it was 3.3 h; in test [2] (peptide 3.5 mM, 25° C.) it was 2.5 h; in test [2] (peptide 5.04 mM, 25° C.) it was 1.8 h; in test [2] (peptide 7 mM, 25° C.), 1.6 h; in test [2] (peptide 9 mM, 25° C.) it was 1.3 h. In test [2] (peptide 11 mM, 25° C.), the “t1/2 of PAI-1 inactivation” value was 1.2 h.

In the case of “Ac-TEAAAATGAAATGR [SEQ ID NO: 5, TEAAAATGAAATGR]”, in test [1] (peptide 1 mM), the kobs result was “.097 h⁻¹”. For the same substance, in test [1], the “half-life of PAI-1 decreased to” value is 0.2 h. In test [2] (0.9 μM PAI, 1.2 mM peptide), the “half-life of PAI inactivation” value is “about 12 min”. Further, in test [2] (peptide 1 mM, 25° C.), the k entry was “.027 M⁻¹ s⁻¹” and the “t1/2 of PAI-1 inactivation” value worked out at 7.2 h. Besides, in test [2] (peptide 1.3 mM, 25° C.), the k result is “.75 M⁻¹ s⁻¹”, the kobs was 3.4 h⁻¹ and the “t1/2 of PAI-1 inactivation” value is “.20 h”.

“Ac-TEASSSTA [SEQ ID NO: 3, Thr-Glu-Ala-Ser-Ser-Ser-Thr-Ala]”: in test [1], the half-inhibitory concentration (IC50) stood at 1600 µM. Moreover, the kobs result was “.090 h⁻¹” in test [1] (peptide .05 mM); “.33 h⁻¹” in test [1] (peptide .246 mM); “.98 h⁻¹” in test [1] (peptide .6 mM); “.13 h⁻¹” in test [2] (peptide .1 mM, 25° C.); “.20 h⁻¹” in test [2] (peptide .15 mM, 25° C.); “.28 h⁻¹” in test [2] (peptide .2 mM, 25° C.). Further, the kobs result is “.42 h⁻¹” in test [2] (peptide .3 mM, 25° C.); “.48 h⁻¹” in test [2] (peptide .4 mM, 25° C.); “.79 h⁻¹” in test [2] (peptide .5 mM, 25° C.). Moreover, the k entry in test [1] (peptide .1 mM) was “.35 M⁻¹ s⁻¹”; in test [1] (peptide .4 mM), “.33 M⁻¹ s⁻¹”; in test [2] (peptide .05 mM, 25° C.), “.50 M⁻¹ s⁻¹”; in test [2] (peptide .15 mM, 25° C.) it was “.37 M⁻¹ s⁻¹”; in test [2] (peptide .2 mM, 25° C.), “.40 M⁻¹ s⁻¹”; in test [2] (peptide .246 mM, 25° C.) it was “.37 M⁻¹ s⁻¹”. The k entry was “.39 M⁻¹ s⁻¹” in test [2] (peptide .3 mM, 25° C.); “.44 M⁻¹ s⁻¹” in test [2] (peptide .5 mM, 25° C.); “.45 M⁻¹ s⁻¹” in test [2] (peptide .6 mM, 25° C.). Further, the “half-life of PAI-1 decreased to” value in test [1] stood at 1.2 h. Moreover, the “electrophoretic mobility of active PAI incubated with peptide, native gel” value in test [3] is listed as “Only a single major band”. Besides, the “lowest PAI-1 functional half-life obtained with increasing concentrations of peptide” value in test [2] (25° C.) stood at 1.2 h. Further, the “t1/2 of PAI-1 inactivation” value in test [2] (peptide .05 mM, 25° C.) stood at 7.7 h; in test [2] (peptide .1 mM, 25° C.) it was 5.5 h; in test [2] (peptide .15 mM, 25° C.), 3.5 h; in test [2] (peptide .2 mM, 25° C.), 2.4 h; in test [2] (peptide .246 mM, 25° C.) it was 2.1 h; in test [2] (peptide .3 mM, 25° C.), 1.7 h. For the same substance, the “t1/2 of PAI-1 inactivation” value in test [2] (peptide .4 mM, 25° C.) was 1.4 h; in test [2] (peptide .5 mM, 25° C.), “.87 h”; in test [2] (peptide .6 mM, 25° C.), “.71 h”.

Turning to “Ac-TVASSSTA [SEQ ID NO: 2, Thr-Val-Ala-Ser-Ser-Ser-Thr-Ala]”, in test [1], the IC50 came out at 230 µM and the “half-life of PAI-1 decreased to” value came out at 0.717 h. Besides, the “electrophoretic mobility of active PAI incubated with peptide, native gel” value in test [3] is listed as “two bands”. Also, the “lowest PAI-1 functional half-life obtained with increasing concentrations of peptide” value in test [2] (25° C.) amounted to 0.7 h. In test [2] (peptide 55 μM, 25° C.), the “t1/2 of PAI-1” value is on record as “over 400 min”. Also, in test [2] (peptide .015 mM, 25° C.), the k was found to be 1.7 M⁻¹ s⁻¹, the kobs result was “.093 h⁻¹” and the “t1/2 of PAI-1 inactivation” value worked out at 7.5 h. Further, in test [2] (peptide .025 mM, 25° C.), the k entry is “.99 M⁻¹ s⁻¹”, the kobs entry is “.089 h⁻¹” and the “t1/2 of PAI-1 inactivation” value is 7.8 h. In test [2] (peptide .045 mM, 25° C.), the k was determined as 6.9 M⁻¹ s⁻¹, the kobs came out at 1.1 h⁻¹ and the “t1/2 of PAI-1 inactivation” value was “.62 h”. Moreover, in test [2] (peptide .064 mM, 25° C.), the k is 42 M⁻¹ s⁻¹, the kobs is 9.6 h⁻¹ and the “t1/2 of PAI-1 inactivation” value was “.072 h”.

Consider heparin, for which the “shortening of the APTT by thrombus extract” value in test [4] (2.5 μL of thrombus extract per 100 μL of heparinized plasma) is on record as “approximately 20 seconds”. In addition, the “prolongation of the APTT” value in test [4] (heparin 0.12 U/mL) was “approximately 2 × control”.

With hirudin, in test [4] (hirudin 0.17 μg/mL), the “effect of thrombus extracts on capacity to prolong the APTT” value is listed as “no effect” and the “prolongation of the APTT” value was “approximately twice”.

The term IC50 denotes the concentration at which inhibition is half-maximal.
